Measured values reported in ChEMBL document CHEMBL1201862, “PubChem BioAssay data set” (2004).
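Step 1: Grow cells in 96-well plates. Step 2: Expose to compound for 48 hours at 5 concentrations. Step 3: Interpolate endpoints linearly; if unreached, use highest concentration. The concentration for 50% growth inhibition is given as GI50.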 The source made the active and inactive calls. Rule as the data show it: active = GI50 up to about 1.1 µM and inactive = higher.

What was measured:
Assay in all cases: DTP human tumour cell line panel, 48 h
NCI-H23 = tested on: NCI-H23
OVCAR-5 = tested on: OVCAR-5
HCT-15 = tested on: HCT-15
M14 = tested on: M14
MOLT-4 = tested on: MOLT-4
K562 = tested on: K562
A498 = tested on: A498
LOX IMVI = tested on: LOX IMVI
SK-MEL-28 = tested on: SK-MEL-28
EKVX = tested on: EKVX
TK-10 = tested on: TK-10
T47D = tested on: T47D
A549 = tested on: A549
OVCAR-4 = tested on: OVCAR-4
NCI/ADR-RES = tested on: NCI/ADR-RES
HOP-92 = tested on: HOP-92
SNB-19 = tested on: SNB-19
NCI-H226 = tested on: NCI-H226
U-251 = tested on: U-251
HCC 2998 = tested on: HCC 2998
SNB-75 = tested on: SNB-75
CCRF-CEM = tested on: CCRF-CEM
UACC-62 = tested on: UACC-62
UO-31 = tested on: UO-31
MDA-MB-231 = tested on: MDA-MB-231
BT-549 = tested on: BT-549
UACC-257 = tested on: UACC-257
SF-268 = tested on: SF-268
ACHN = tested on: ACHN
SK-MEL-2 = tested on: SK-MEL-2
DU-145 = tested on: DU-145
OVCAR-3 = tested on: OVCAR-3
SK-OV-3 = tested on: SK-OV-3
SW-620 = tested on: SW-620
SF-295 = tested on: SF-295
RPMI-8226 = tested on: RPMI-8226
CAKI-1 = tested on: CAKI-1
HOP-62 = tested on: HOP-62
SK-MEL-5 = tested on: SK-MEL-5
COLO 205 = tested on: COLO 205
MCF7 = tested on: MCF7
HCT-116 = tested on: HCT-116
RXF 393 = tested on: RXF 393
MDA-MB-435 = tested on: MDA-MB-435
786-0 = tested on: 786-0
PC-3 = tested on: PC-3
NCI-H460 = tested on: NCI-H460
KM12 = tested on: KM12
IGROV-1 = tested on: IGROV-1
Hs-578T = tested on: Hs-578T
HT-29 = tested on: HT-29
MDA-N = tested on: MDA-N
SF-539 = tested on: SF-539
SN12C = tested on: SN12C
SR = tested on: SR
NCI-H522 = tested on: NCI-H522
OVCAR-8 = tested on: OVCAR-8
Malme-3M = tested on: Malme-3M
HL-60 = tested on: HL-60

## CN1C(=O)C(=Cc2ccc(Br)cc2)C(=O)N(C)C1=O
NCI-H23
  GI50: > 100 µM (inactive)
OVCAR-5
  GI50: > 100 µM (inactive)
HCT-15
  GI50: > 100 µM
M14
  GI50: > 100 µM (inactive)
MOLT-4
  GI50: 14.1 µM (inactive)
K562
  GI50: 5.45 µM (inactive)
A498
  GI50: > 100 µM (inactive)
LOX IMVI
  GI50: > 100 µM (inactive)
SK-MEL-28
  GI50: > 100 µM (inactive)
EKVX
  GI50: > 100 µM (inactive)
TK-10
  GI50: > 100 µM (inactive)
T47D
  GI50: > 100 µM (inactive)
A549
  GI50: > 100 µM (inactive)
OVCAR-4
  GI50: > 100 µM (inactive)
NCI/ADR-RES
  GI50: > 100 µM (inactive)
HOP-92
  GI50: > 100 µM (inactive)
SNB-19
  GI50: > 100 µM (inactive)
NCI-H226
  GI50: > 100 µM (inactive)
U-251
  GI50: > 100 µM (inactive)
HCC 2998
  GI50: > 100 µM (inactive)
SNB-75
  GI50: > 100 µM (inactive)
CCRF-CEM
  GI50: > 100 µM (inactive)
UACC-62
  GI50: > 100 µM (inactive)
UO-31
  GI50: > 100 µM (inactive)
MDA-MB-231
  GI50: > 100 µM (inactive)
BT-549
  GI50: > 100 µM (inactive)
UACC-257
  GI50: > 100 µM (inactive)
SF-268
  GI50: > 100 µM (inactive)
ACHN
  GI50: > 100 µM (inactive)
SK-MEL-2
  GI50: > 100 µM (inactive)
DU-145
  GI50: > 100 µM (inactive)
OVCAR-3
  GI50: > 100 µM (inactive)
SK-OV-3
  GI50: > 100 µM (inactive)
SW-620
  GI50: > 100 µM (inactive)
SF-295
  GI50: > 100 µM (inactive)
RPMI-8226
  GI50: > 100 µM (inactive)
CAKI-1
  GI50: > 100 µM (inactive)
HOP-62
  GI50: > 100 µM (inactive)
SK-MEL-5
  GI50: > 100 µM (inactive)
COLO 205
  GI50: > 100 µM (inactive)
MCF7
  GI50: > 100 µM (inactive)
HCT-116
  GI50: > 100 µM (inactive)
RXF 393
  GI50: 40.8 µM (inactive)
MDA-MB-435
  GI50: > 100 µM (inactive)
786-0
  GI50: > 100 µM (inactive)
PC-3
  GI50: > 100 µM (inactive)
NCI-H460
  GI50: > 100 µM (inactive)
KM12
  GI50: > 100 µM (inactive)

## CC1OC2=N[C@@H]1C(=O)N[C@@H](C(C)C)C1=N[C@H](C(=O)N[C@@H](C(C)C)C3=N[C@H](C(=O)N[C@@H](C(C)C)C4=N[C@H](C(=O)N[C@H]2C(C)C)C(C)O4)C(C)O3)C(C)O1 (stereo partly drawn)
NCI-H23
  GI50: > 10 µM (inactive)
OVCAR-5
  GI50: > 10 µM (inactive)
IGROV-1
  GI50: > 10 µM (inactive)
HCT-15
  GI50: > 10 µM
M14
  GI50: > 10 µM (inactive)
Hs-578T
  GI50: > 10 µM (inactive)
MOLT-4
  GI50: > 10 µM (inactive)
K562
  GI50: > 10 µM (inactive)
A498
  GI50: > 10 µM (inactive)
LOX IMVI
  GI50: > 10 µM (inactive)
SK-MEL-28
  GI50: > 10 µM (inactive)
EKVX
  GI50: > 10 µM (inactive)
TK-10
  GI50: > 10 µM (inactive)
T47D
  GI50: > 10 µM (inactive)
OVCAR-4
  GI50: > 10 µM (inactive)
NCI/ADR-RES
  GI50: > 10 µM (inactive)
HOP-92
  GI50: > 10 µM (inactive)
SNB-19
  GI50: > 10 µM (inactive)
NCI-H226
  GI50: > 10 µM (inactive)
U-251
  GI50: > 10 µM (inactive)
HCC 2998
  GI50: > 10 µM (inactive)
SNB-75
  GI50: > 10 µM (inactive)
CCRF-CEM
  GI50: > 10 µM (inactive)
UO-31
  GI50: > 10 µM (inactive)
MDA-MB-231
  GI50: > 10 µM (inactive)
UACC-257
  GI50: > 10 µM (inactive)
HT-29
  GI50: > 10 µM (inactive)
SF-268
  GI50: > 10 µM (inactive)
ACHN
  GI50: > 10 µM (inactive)
MDA-N
  GI50: > 10 µM (inactive)
SK-MEL-2
  GI50: > 10 µM (inactive)
SF-539
  GI50: > 10 µM (inactive)
SN12C
  GI50: > 10 µM (inactive)
SR
  GI50: > 10 µM (inactive)
NCI-H522
  GI50: > 10 µM (inactive)
DU-145
  GI50: > 10 µM (inactive)
OVCAR-3
  GI50: > 10 µM (inactive)
SK-OV-3
  GI50: > 10 µM (inactive)
OVCAR-8
  GI50: > 10 µM (inactive)
SW-620
  GI50: > 10 µM (inactive)
SF-295
  GI50: > 10 µM (inactive)
RPMI-8226
  GI50: > 10 µM (inactive)
CAKI-1
  GI50: > 10 µM (inactive)
HOP-62
  GI50: > 10 µM (inactive)
SK-MEL-5
  GI50: > 10 µM (inactive)
COLO 205
  GI50: > 10 µM (inactive)
MCF7
  GI50: > 10 µM (inactive)
RXF 393
  GI50: > 10 µM (inactive)
MDA-MB-435
  GI50: > 10 µM (inactive)
786-0
  GI50: > 10 µM (inactive)
PC-3
  GI50: > 10 µM (inactive)
Malme-3M
  GI50: > 10 µM (inactive)
HL-60
  GI50: > 10 µM (inactive)
NCI-H460
  GI50: > 10 µM (inactive)
KM12
  GI50: > 10 µM (inactive)
